# Assay results taken from the supplement of paper PMC10307832.
# Key:
# Test in all cases: relative viability (nuclei count vs DMSO), 5 days (fraction); higher = more cells survive
# Kobe2602 + Decitabine = compound: C1=CC(=CC=C1NC(=S)NNC2=C(C=C(C=C2[N+](=O)[O-])C(F)(F)F)[N+](=O)[O-])F [Kobe2602] + Nc1ncn([C@H]2C[C@H](O)[C@@H](CO)O2)c(=O)n1 [Decitabine] (partner 2 µM)
# Procedure, shortened: (§1)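 For relative viability, nuclei counts in treated wells were divided by those in vehicle wells. Lung cancer cell lines had been pin-tool dosed in 1536-well plates the day after seeding and cultured for 5 days, then fixed and stained in one step (final 0.05% Triton X-100, 1% formaldehyde, 1 ug/ml Hoechst) and imaged at 4×. Doses were one drug alone or a fixed anchor-drug dose plus five library-drug doses (not always all listed) in √10 steps, and values are duplicate-plate medians.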
# Cabozantinib + Olaparib = compound: COc1cc2nccc(Oc3ccc(NC(=O)C4(C(=O)Nc5ccc(F)cc5)CC4)cc3)c2cc1OC [Cabozantinib] + O=C(c1cc(Cc2n[nH]c(=O)c3ccccc23)ccc1F)N1CCN(C(=O)C2CC2)CC1 [Olaparib] (partner 8 µM)
# Procedure, shortened: as §1
# Zosuquidar + Crizotinib = compound: O[C@@H](COc1cccc2ncccc12)CN1CCN([C@@H]2c3ccccc3[C@@H]3[C@H](c4ccccc42)C3(F)F)CC1 [Zosuquidar] + C[C@@H](Oc1cc(-c2cnn(C3CCNCC3)c2)cnc1N)c1c(Cl)ccc(F)c1Cl [Crizotinib] (partner 1 µM)
# Procedure, shortened: as §1
# Zosuquidar + Linsitinib = compound: O[C@@H](COc1cccc2ncccc12)CN1CCN([C@@H]2c3ccccc3[C@@H]3[C@H](c4ccccc42)C3(F)F)CC1 [Zosuquidar] + C[C@]1(O)C[C@@H](c2nc(-c3ccc4ccc(-c5ccccc5)nc4c3)c3c(N)nccn32)C1 [Linsitinib] (partner 1 µM)
# Procedure, shortened: as §1
Cell Line,relative viability (Kobe2602 + Decitabine; first compound 0.2 µM),relative viability (Kobe2602 + Decitabine; first compound 0.6325 µM),relative viability (Kobe2602 + Decitabine; first compound 2 µM),relative viability (Kobe2602 + Decitabine; first compound 6.325 µM),relative viability (Kobe2602 + Decitabine; first compound 20 µM),relative viability (Cabozantinib + Olaparib; first compound 0.02 µM),relative viability (Cabozantinib + Olaparib; first compound 0.06325 µM),relative viability (Cabozantinib + Olaparib; first compound 0.2 µM),relative viability (Cabozantinib + Olaparib; first compound 0.6325 µM),relative viability (Cabozantinib + Olaparib; first compound 2 µM),relative viability (Zosuquidar + Crizotinib; first compound 0.01 µM),relative viability (Zosuquidar + Crizotinib; first compound 0.03162 µM),relative viability (Zosuquidar + Crizotinib; first compound 0.1 µM),relative viability (Zosuquidar + Crizotinib; first compound 0.3162 µM),relative viability (Zosuquidar + Crizotinib; first compound 1 µM),relative viability (Zosuquidar + Linsitinib; first compound 0.01 µM),relative viability (Zosuquidar + Linsitinib; first compound 0.03162 µM),relative viability (Zosuquidar + Linsitinib; first compound 0.1 µM),relative viability (Zosuquidar + Linsitinib; first compound 0.3162 µM),relative viability (Zosuquidar + Linsitinib; first compound 1 µM)
201T,0.89,0.892,0.872,0.949,0.876,0.909,0.893,0.832,0.842,0.832,0.986,0.891,0.996,0.983,1.04,1.06,1.01,0.892,0.961,1.01
A549,0.228,0.266,0.414,0.251,0.247,0.291,0.628,0.34,0.212,0.309,0.805,0.738,0.844,0.722,0.765,0.766,0.571,0.416,0.53,0.564
A-427,0.589,0.628,0.51,0.539,0.616,0.715,0.709,0.714,0.761,0.704,0.851,0.911,0.784,0.957,0.858,1.09,1.14,0.971,1.15,1.11
ABC-1,1.11,1.31,1.05,1.18,1.16,,0.786,0.939,0.598,0.816,1.19,1.17,1.41,1.31,1.08,0.877,0.794,0.836,0.871,0.924
BEN,0.707,0.734,0.709,0.711,0.92,1.16,1.18,1.23,1.01,0.764,1.01,0.923,0.827,0.821,0.77,1.05,0.896,0.766,0.859,0.936
CAL-12T,,,,,,0.728,0.859,0.73,0.716,0.743,0.51,0.676,0.719,0.747,0.497,0.776,0.979,0.549,0.894,0.841
COR-L23,0.455,0.462,0.409,0.468,0.515,0.366,0.399,0.39,0.37,0.351,0.661,0.699,0.787,0.647,0.716,0.98,0.959,0.945,1.03,0.902
COR-L 105,0.706,0.679,0.473,0.739,0.602,0.75,0.688,0.742,0.663,0.805,0.953,0.727,0.788,0.838,0.73,0.889,0.975,0.869,1.15,1.05
Calu-6,,,,,,0.595,0.662,0.613,0.539,0.517,0.872,0.764,0.879,0.844,0.791,0.905,0.906,0.901,1.12,0.948
ChaGo-K-1,0.538,0.524,0.512,0.469,0.481,0.446,0.458,0.454,0.411,0.442,1.08,1.2,1.32,1.1,1.13,,,,,
EBC-1,,,,,,0.748,0.452,0.16,0.136,0.123,0.193,0.214,0.201,0.201,0.205,0.956,0.923,0.747,1.16,0.845
EKVX,0.337,0.377,0.349,0.43,0.385,1.04,1.01,0.792,0.969,0.805,0.951,1.01,0.883,0.995,0.705,1.05,1.06,0.731,0.922,1.05
EMC-BAC-2,0.973,0.961,0.961,1.01,0.973,0.496,0.499,0.531,0.472,0.485,0.78,0.724,0.767,0.843,0.765,0.803,0.843,0.782,0.858,0.797
EPLC-272H,0.341,0.381,0.411,0.319,0.395,0.906,0.787,0.648,0.884,0.597,0.899,0.901,0.97,0.813,0.751,1.24,1.22,1.1,1.12,1.09
H3255,0.554,0.719,0.57,0.634,0.653,0.583,0.613,,0.599,0.611,0.885,0.832,0.669,0.945,0.857,1.07,0.945,0.783,1.1,0.951
HARA,0.566,0.591,0.5,0.537,0.499,0.794,1.07,,0.978,0.635,0.924,1.03,1.14,1.09,1.07,0.84,0.993,0.959,1.04,1.11
HCC-15,0.662,0.649,0.537,0.627,0.62,0.745,0.755,0.73,0.719,0.692,0.821,0.865,0.71,0.856,0.874,0.949,0.794,0.913,0.901,0.901
HCC-44,0.993,0.894,0.897,0.896,0.91,0.988,1.02,0.964,0.997,1,0.761,0.828,0.84,0.846,0.804,0.663,0.684,0.65,0.669,0.696
HCC-78,0.65,0.711,0.6,0.724,0.727,,0.886,0.753,0.443,0.405,0.352,0.321,,0.362,0.322,0.67,0.556,,0.486,0.542

Cell Line,relative viability (Kobe2602 + Decitabine; first compound 0.2 µM),relative viability (Kobe2602 + Decitabine; first compound 0.6325 µM),relative viability (Kobe2602 + Decitabine; first compound 2 µM),relative viability (Kobe2602 + Decitabine; first compound 6.325 µM),relative viability (Kobe2602 + Decitabine; first compound 20 µM),relative viability (Cabozantinib + Olaparib; first compound 0.02 µM),relative viability (Cabozantinib + Olaparib; first compound 0.06325 µM),relative viability (Cabozantinib + Olaparib; first compound 0.2 µM),relative viability (Cabozantinib + Olaparib; first compound 0.6325 µM),relative viability (Cabozantinib + Olaparib; first compound 2 µM),relative viability (Zosuquidar + Crizotinib; first compound 0.01 µM),relative viability (Zosuquidar + Crizotinib; first compound 0.03162 µM),relative viability (Zosuquidar + Crizotinib; first compound 0.1 µM),relative viability (Zosuquidar + Crizotinib; first compound 0.3162 µM),relative viability (Zosuquidar + Crizotinib; first compound 1 µM),relative viability (Zosuquidar + Linsitinib; first compound 0.01 µM),relative viability (Zosuquidar + Linsitinib; first compound 0.03162 µM),relative viability (Zosuquidar + Linsitinib; first compound 0.1 µM),relative viability (Zosuquidar + Linsitinib; first compound 0.3162 µM),relative viability (Zosuquidar + Linsitinib; first compound 1 µM)
HCC-366,0.31,0.337,0.333,0.34,0.36,0.597,0.464,0.395,0.4,0.335,0.468,0.59,0.636,0.48,0.577,0.641,0.682,0.641,0.597,0.783
HCC-827,0.354,0.266,0.355,0.325,0.404,0.643,0.786,,0.624,0.562,0.931,0.923,0.937,0.871,0.872,1,0.902,0.943,0.879,0.96
HOP-62,0.236,0.203,0.201,0.251,0.243,0.435,0.406,0.608,0.602,0.575,0.829,1.01,0.85,1,0.864,0.834,1.12,1.13,0.886,0.991
IA-LM,,,,,,0.817,0.849,0.801,1.06,0.925,,0.804,1.05,1.03,0.861,0.671,0.766,0.334,0.654,0.624
LC-2-ad,0.664,0.888,0.943,0.825,0.815,0.754,0.735,0.847,0.829,0.691,0.443,0.508,0.451,0.449,0.46,0.776,0.857,0.873,0.797,0.895
LCLC-97TM1,0.234,0.229,,0.242,0.28,0.483,0.492,0.332,0.342,0.407,0.389,0.327,,0.429,0.339,0.204,0.177,,0.174,0.171
LCLC-103H,0.744,0.703,0.79,0.778,0.718,0.77,0.796,0.779,0.79,0.729,1.07,1.09,0.991,0.892,0.989,1.13,1.17,1.05,0.912,1.03
NCI-H522,0.693,0.654,0.649,0.642,0.756,0.714,0.667,0.584,0.625,0.648,,,,,,,,,,
NCI-H1299,,,,,,0.969,0.988,0.964,0.971,1.09,0.938,1.01,1.03,0.982,0.928,1.03,0.955,0.967,0.992,0.959
NCI-H1395,0.764,0.752,0.712,0.687,0.68,0.439,0.466,0.497,0.46,0.454,,,,,,1.39,1.17,0.796,1.04,1.1
NCI-H1563,,,,,,,,,,,0.734,0.904,0.84,0.828,0.838,1.22,1.29,1.13,1.2,1.26
NCI-H1648,0.657,0.489,0.402,0.533,0.509,1.17,0.995,,1.02,0.651,,,,,,,,,,
NCI-H1650,0.42,0.473,0.381,0.338,0.366,0.831,0.958,0.713,0.753,0.809,0.888,1.02,0.974,1.01,1.02,,,,,
NCI-H1703,,,,,,0.398,0.232,0.224,0.215,0.149,0.785,1.13,0.682,0.582,1.01,1.13,0.979,0.543,1.57,0.74
NCI-H1793,0.482,0.485,0.656,0.664,0.472,1.01,0.899,,0.756,0.599,,,,,,0.748,0.934,,0.797,0.73
NCI-H2170,0.492,0.455,0.481,0.449,0.478,0.66,0.682,0.538,0.576,0.684,1.18,1.22,1.21,1.19,1.17,,,,,
NCI-H2228,,,,,,0.769,0.924,0.742,0.602,0.573,0.524,0.598,0.44,0.338,0.607,0.659,0.922,0.552,0.515,0.685
NCI-H2342,0.846,0.749,0.68,0.658,0.728,0.436,0.454,0.746,0.495,0.379,,,,,,,,,,
SW 900,0.559,0.454,0.411,0.452,0.387,0.877,0.941,0.664,0.636,0.684,,,,,,,,,,
